Experimental data taken from ChEMBL document CHEMBL4414648, “Novel Benzohydroxamate-Based Potent and Selective Histone Deacetylase 6 (HDAC6) Inhibitors Bearing a Pentaheterocyclic Scaffold: Design, Synthesis, and Biological Evaluation” (J Med Chem, 2019).
Calls of active or inactive are those of the source. The calls are words filed in the database; no cut-off is given here.

How the values were obtained:
[1] = Total clearance in CD-1 mouse at […], iv measured within 6 hrs by LC-MS/MS analysis; type: ADME, organism-based; settings: in vivo
[2] = Stability in human liver S9 fraction assessed as parent compound remaining at 5 uM after 90 mins in presence of NADPH by LC-MS/MS analysis; type: ADME, subcellular; settings: read-out: Stability
[3] = Oral bioavailability in CD-1 mouse at 5.2 mg/kg measured within 6 hrs by LC-MS/MS analysis; type: ADME, organism-based; settings: in vivo
[4] = Selectivity ratio of IC50 for N-terminal GST-tagged human HDAC7 (518 to end residues) expressed in baculovirus infected sf9 insect cells to IC50 for human N-terminal GST-tagged HDAC6 expressed in baculovirus infected sf9 insect cells
[5] = Stability in rat liver S9 fraction assessed as parent compound remaining at 5 uM after 90 mins in presence of NADPH by LC-MS/MS analysis; type: ADME, subcellular; settings: read-out: Stability
[6] = Toxicity in C57BL/6 mouse assessed as inactivity/hyperactivity up to 50 mg/kg, ip administered for 5 days/week for two cycles and measured daily starting from day 1; type: organism-based; settings: in vivo, 120 h
[7] = test system: Histone deacetylase; assay: Inhibition of HDAC in human 697 cells assessed as increase in H3 acetylation at 1000 nM incubated for 16 hrs by ELISA; type: cell-based; settings: human, 697, 16 h, 1 µM
[8] = Stability in human plasma assessed as parent compound remaining at 100 uM after 4 hrs by LC-MS/MS analysis; type: ADME, cell-free; settings: read-out: Stability
[9] = Toxicity in C57BL/6 mouse assessed as effect on body weight at 10 mg/kg, ip administered for 5 days/week for two cycles and measured every other day relative to control; type: organism-based; settings: in vivo, 120 h
[10] = Toxicity in C57BL/6 mouse assessed as effect on body weight at 30 mg/kg, ip administered for 5 days/week for two cycles and measured every other day relative to control; type: organism-based; settings: in vivo, 120 h
[11] = Toxicity in C57BL/6 mouse assessed as effect on stool up to 50 mg/kg, ip administered for 5 days/week for two cycles and measured daily starting from day 1; type: organism-based; settings: in vivo, 120 h
[12] = Total AUC in CD-1 mouse at 5.2 mg/kg, po measured within 6 hrs by LC-MS/MS analysis; type: ADME, organism-based; set-up: dose 5.2 mg/kg, route oral, time AUCmax; settings: in vivo
[13] = Cmax in CD-1 mouse at 5.2 mg/kg, po measured within 6 hrs by LC-MS/MS analysis; type: ADME, organism-based; set-up: dose 5.2 mg/kg, route oral; settings: in vivo
[14] = Toxicity in C57BL/6 mouse assessed as effect on postural changes up to 50 mg/kg, ip administered for 5 days/week for two cycles and measured daily starting from day 1; type: organism-based; settings: in vivo, 120 h
[15] = Apparent volume of distribution at steady state in CD-1 mouse at […], iv measured within 6 hrs by LC-MS/MS analysis; type: ADME, organism-based; settings: in vivo, read-out: Vdss(app)
[16] = Stability in rat plasma assessed as parent compound remaining at 100 uM after 4 hrs by LC-MS/MS analysis; type: ADME, cell-free; settings: read-out: Stability
[17] = Drug level in C57BL/6 mouse plasma at 30 mg/kg, ip measured after 24 hrs; type: ADME, organism-based; settings: in vivo, BLD = below limit of detection
[18] = Toxicity in C57BL/6 mouse assessed as effect on platelet level at 30 mg/kg, ip administered for 5 days/week for two cycles and measured 60 mins post last dose by cell counter method relative to control; type: organism-based; settings: in vivo, 1 h
[19] = Toxicity in ip dosed C57BL/6 mouse administered for 5 days/week for two cycles; type: organism-based; settings: in vivo
[20] = Toxicity in C57BL/6 mouse assessed as effect on grooming up to 50 mg/kg, ip administered for 5 days/week for two cycles; type: organism-based; settings: in vivo, 120 h
[21] = test system: Mus musculus; assay: In vivo inhibition of HDAC6 in C57BL/6 mouse assessed as increase in acetylated tubulin level in spleen cytosolic protein extract at 30 mg/kg, ip measured after 60 mins by ELISA relative to control; type: functional
[22] = Selectivity ratio of IC50 for C-terminal GST-tagged human HDAC5 to IC50 for human N-terminal GST-tagged HDAC6 expressed in baculovirus infected sf9 insect cells
[23] = test system: Mus musculus; assay: In vivo inhibition of HDAC6 in C57BL/6 mouse assessed as increase in acetylated tubulin level in spleen cytosolic protein extract at 30 mg/kg, ip measured after 24 hrs by ELISA; type: functional, organism-based
[24] = Toxicity in C57BL/6 mouse assessed as effect on WBC level at 50 mg/kg, ip administered for 5 days/week for two cycles and measured 60 mins post last dose by beckman coulter counting method relative to control; type: organism-based; settings: in vivo, 1 h
[25] = Selectivity ratio of IC50 for N-terminal Flag-tagged human HDAC10 (2 to 631 residues) expressed in baculovirus infected sf9 insect cells to IC50 for human N-terminal GST-tagged HDAC6 expressed in baculovirus infected sf9 insect cells
[26] = Toxicity in C57BL/6 mouse assessed as effect on WBC level at 10 mg/kg, ip administered for 5 days/week for two cycles and measured 60 mins post last dose by beckman coulter counting method relative to control; type: organism-based; settings: in vivo, 1 h

Compound: Cn1c(Sc2ccc(C(=O)NO)cc2)nnc1-c1cccs1
- clearance at 6 h [1]: 182 mL/min/kg
- remaining at […], 5 µM [2]: 95%
- bioavailability [3]: 26%
- Ratio IC50 [4]: 99
- remaining at […], 5 µM [5]: 82%
- Activity [6]: Non-Toxic
- inhibition (INH) [7]: Active
- remaining at 4 h, 100 µM [8]: 100%
- Activity [9]: 2.8%
- Activity [10]: 3.9%
- Activity [11]: Non-Toxic
- AUC at 6 h [12]: 123 ng·h/mL
- Cmax [13]: 144 ng/mL
- Activity [14]: Non-Toxic
- Vd at 6 h [15]: 5.4 L/kg
- remaining at 4 h, 100 µM [16]: 86%
- Drug uptake [17]: Bld
- Activity [18]: -2%
- MTD at 120 h [19]: < 30 mg/kg
- Activity [20]: Non-Toxic
- fold change (FC) [21]: 10
- Ratio IC50 [22]: 326
- inhibition [23]: Active
- Activity [24]: -30%
- Ratio IC50 [25]: 343
- Activity [26]: 1%
